This is an account of results in patent US4199570A, “1-N-Hetero containing aminoglycoside derivatives” (Shionogi & Co., Ltd., priority 1977, dated 1980).

Assay type in all cases: cell-based
Assay [1] deals with Proteus vulgaris TB-615. In words: MIC (Table 2). The note with it: TB615, tobramycin resistant strain, read-out: Minimum Inhibitory Concentration (MIC).
In assay [2] the test system is Pseudomonas aeruginosa TB-151. In words: MIC (Table 2). The note with it: TB151, tobramycin resistant strain, read-out: Minimum Inhibitory Concentration (MIC).
In assay [3] the test system is Pseudomonas aeruginosa TB-121. As to the kind of experiment: MIC (Table 2). The note with it: TB121, tobramycin resistant strain, read-out: Minimum Inhibitory Concentration (MIC).
Assay [4] relates to Staphylococcus epidermidis TB-302. As to the kind of experiment: MIC (Table 2). The note with it: TB302, tobramycin resistant strain, read-out: Minimum Inhibitory Concentration (MIC).
For assay [5], the system named is Staphylococcus epidermidis TB-775. As to the kind of experiment: MIC (Table 2). The note with it: TB775, tobramycin resistant strain, read-out: Minimum Inhibitory Concentration (MIC).
The test system of assay [6] is Proteus vulgaris TB-615. As to the kind of experiment: MIC (Table 3). The note with it: TB615, read-out: Minimum Inhibitory Concentration (MIC).
Assay [7] relates to Staphylococcus epidermidis TB-775. In words: MIC (Table 3). The note with it: TB775, read-out: Minimum Inhibitory Concentration (MIC).
In assay [8] the test system is Pseudomonas aeruginosa TB-151. In words: MIC (Table 3). The note with it: TB151, read-out: Minimum Inhibitory Concentration (MIC).
The subject of assay [9] is Pseudomonas aerginosa TB-121. In words: MIC (Table 3). The note with it: TB121, read-out: Minimum Inhibitory Concentration (MIC).

≈ marks a conversion by molar mass, not a printed value.

With `NC[C@H]1O[C@H](O[C@H]2[C@H](O)[C@@H](O[C@H]3O[C@H](CO)[C@@H](O)[C@H](N)[C@H]3O)[C@H](NC(=O)C3(O)CNC3)C[C@@H]2N)[C@H](N)C[C@@H]1O` [Comp. (1), 1-N-(3-hydroxyazetidine-3-carbonyl)tobramycin], the MIC is 6.25 µg/mL (≈ 11 µM) with Proteus vulgaris TB-615 [1]; 3.13 µg/mL (≈ 5.52 µM) in assay [2]; 25 µg/mL (≈ 44.1 µM) in assay [3]; 12.5 µg/mL (≈ 22.1 µM) in assay [4]; more than 100 µg/mL in [5].
For `NC[C@H]1O[C@H](O[C@H]2[C@H](O)[C@@H](O[C@H]3O[C@H](CO)[C@@H](O)[C@H](N)[C@H]3O)[C@H](NC(=O)C3(O)CNC3)C[C@@H]2N)[C@H](O)[C@@H](O)[C@@H]1O` [Comp. (2), 1-N-(3-hydroxyazetidine-3-carbonyl)kanamycin A] the same measures were 6.25 µg/mL (≈ 10.7 µM), 6.25 µg/mL (≈ 10.7 µM), 25 µg/mL (≈ 42.8 µM), 6.25 µg/mL (≈ 10.7 µM) and 50 µg/mL (≈ 85.7 µM).
In the same order, the values of `NC[C@H]1O[C@H](O[C@H]2[C@H](O)[C@@H](O[C@H]3O[C@H](CO)[C@@H](O)[C@H](N)[C@H]3O)[C@H](N)C[C@@H]2N)[C@H](O)[C@@H](O)[C@@H]1O` [KM-A, kanamycin A] are 100 µg/mL (≈ 206 µM), more than 100 µg/mL, more than 100 µg/mL, 12.5 µg/mL (≈ 25.8 µM) and more than 100 µg/mL.
Take `NC[C@H]1O[C@H](O[C@H]2[C@H](O)[C@@H](O[C@H]3O[C@H](CO)[C@@H](O)[C@H](N)[C@H]3O)[C@H](N)C[C@@H]2N)[C@H](N)C[C@@H]1O` [TOB, tobramycin]: the MIC in the assay on Proteus vulgaris TB-615 [6] stood at 50 µg/mL (≈ 107 µM); with Proteus vulgaris TB-615 [1], 50 µg/mL (≈ 107 µM); in assay [2], 100 µg/mL (≈ 214 µM); in [7], 100 µg/mL (≈ 214 µM); in assay [8], 25 µg/mL (≈ 53.5 µM); in assay [3], 100 µg/mL (≈ 214 µM). The MIC was 25 µg/mL (≈ 53.5 µM) in assay [4], 25 µg/mL (≈ 53.5 µM) in [9] and more than 100 µg/mL in [5].
